Data as given in ChEMBL document CHEMBL1146745, “Studies on anti-Helicobacter pylori agents. Part 3: A novel, efficacious cephem derivative, FR193879” (Bioorg Med Chem Lett, 2004).
Converted amounts (≈) assume the structure as drawn.

What was measured:
Bacteroides fragilis [1] = assay: Stability towards beta-lactamase was determined in […] FP784; format: functional, organism-based
[2] = Solubility at a pH of 2.0; format: physicochemical; settings: pH 2
[3] = Solubility at a pH of 4.0; format: physicochemical; settings: pH 4
Canis familiaris = assay: Non-toxic dose in dogs after 4 weeks of oral administration; format: functional, Canis lupus familiaris
Helicobacter pylori [4] = assay: Minimum inhibitory activity against clarithromycin- and metronidazole-resistant strain 16021; format: functional
Helicobacter pylori [5] = assay: Minimum inhibitory activity against clarithromycin- and metronidazole-resistant strain 16043; format: functional
Helicobacter pylori [6] = assay: Minimum inhibitory activity against clarithromycin- and metronidazole-resistant strain 15069; format: functional
Helicobacter pylori [7] = assay: Minimum inhibitory activity against Helicobacter pylori FP1757; format: functional
Helicobacter pylori [8] = assay: Minimum inhibitory activity against Helicobacter pylori FP1836; format: functional
Rattus norvegicus [9] = assay: In vivo gastric mucosa concentration administered perorally at 20 mg/kg was determined in rats at 0.5 hr; format: functional; settings: route oral
Rattus norvegicus [10] = assay: In vivo gastric mucosa concentration administered perorally at 20 mg/kg was determined in rats at 1 hr; format: functional; settings: route oral
Rattus norvegicus [11] = assay: In vivo gastric mucosa concentration administered perorally at 20 mg/kg was determined in rats at 2 hr; format: functional; settings: route oral
Rattus norvegicus [12] = assay: In vivo gastric mucosa concentration administered perorally at 20 mg/kg was determined in rats at 4 hr; format: functional; settings: route oral
Rattus norvegicus [13] = assay: Recovery rate from urine and bile was determined after iv administration at 20 mg/kg in rats; format: functional, organism-based; design: dose 20 mg/kg
[14] = Therapeutic efficacy at an oral dose of 0.032 mg/kg in mouse; format: ADME, organism-based; design: dose 0.032 mg/kg, route oral; settings: in vivo
[15] = Therapeutic efficacy at an oral dose of 0.1 mg/kg in mouse; format: ADME, organism-based; design: dose 0.1 mg/kg, route oral; settings: in vivo
[16] = Therapeutic efficacy at an oral dose of 0.125 mg/kg in guinea pig; format: ADME, organism-based; design: dose 0.125 mg/kg, route oral; settings: in vivo
[17] = Therapeutic efficacy at an oral dose of 0.32 mg/kg in mouse; format: ADME, organism-based; design: dose 0.32 mg/kg, route oral; settings: in vivo
[18] = Therapeutic efficacy at an oral dose of 0.5 mg/kg in guinea pig; format: ADME, organism-based; design: dose 0.5 mg/kg, route oral; settings: in vivo
[19] = Therapeutic efficacy at an oral dose of 2 mg/kg in guinea pig; format: ADME, organism-based; design: dose 2 mg/kg, route oral; settings: in vivo
Bacteroides fragilis [20] = assay: Relative stability towards beta-lactamase was determined in […] FP784; format: functional
[21] = Retention time by HPLC as an index of polarity
[22] = Partition coefficient by HPLC retention as an index of polarity; format: ADME; settings: octanol/water
Helicobacter pylori [23] = assay: Minimum inhibitory concentration against Helicobacter pylori FP1757; format: functional
[24] = Therapeutic efficacy at a dose of 0.1 mg/kg; format: ADME, organism-based; design: dose 0.1 mg/kg; settings: in vivo
[25] = Therapeutic efficacy at a dose of 0.32 mg/kg; format: ADME, organism-based; design: dose 0.32 mg/kg; settings: in vivo

## O=C(Cc1cccs1)N[C@@H]1C(=O)N2C(C(=O)[O-])=C(C[n+]3ccccc3)CS[C@H]12
Bacteroides fragilis [1]
  Km: 31.7 µg/mL

## NC(=O)Cc1csc(SC2=C(C(=O)O)N3C(=O)[C@@H](NC(=O)Cc4ccccc4)[C@H]3SC2)n1
[2]
  solubility: 0.431 mg/mL (≈ 879 µM)
[3]
  solubility: 2.21 mg/mL (≈ 4500 µM)
Canis familiaris
  Dose: >100 mg/kg
Helicobacter pylori [4]
  MIC: 0.0016 mg/L (≈ 0.00326 µM)
Helicobacter pylori [5]
  MIC: 0.0016 mg/L (≈ 0.00326 µM)
Helicobacter pylori [6]
  MIC: 0.0063 mg/L (≈ 0.0128 µM)
Helicobacter pylori [7]
  MIC50: 0.00078 mg/L (≈ 0.00159 µM)
Helicobacter pylori [8]
  MIC50: 0.00313 mg/L (≈ 0.00638 µM)
Rattus norvegicus [9]
  Gastric concentration: 385 µg/g
Rattus norvegicus [10]
  Gastric concentration: 163 µg/g
Rattus norvegicus [11]
  Gastric concentration: 68 µg/g
Rattus norvegicus [12]
  Gastric concentration: 38 µg/g
Rattus norvegicus [13]
  Recovery rate: 68%
[14]
  Ratio: 1
[15]
  Ratio: 4
[16]
  Ratio: 0
[17]
  Ratio: 5
[18]
  Ratio: 3
[19]
  Ratio: 5
Bacteroides fragilis [1]
  Km: 19.4 µg/mL
  Vmax: 0.647
Bacteroides fragilis [20]
  Ratio: 1.06
[21]
  HPLC retention time: 6.2 min

## O=C(N[C@H](CO)[C@H](O)c1ccc([N+](=O)[O-])cc1)C(Cl)Cl [CHLORAMPHENICOL]
Helicobacter pylori [4]
  MIC: 50 mg/L (≈ 155 µM)
Helicobacter pylori [5]
  MIC: 50 mg/L (≈ 155 µM)
Helicobacter pylori [6]
  MIC: 25 mg/L (≈ 77.4 µM)

## Cc1nnc(SC2=C(C(=O)O)N3C(=O)[C@@H](NC(=O)Cc4csc(N)n4)[C@H]3SC2)s1
[22]
  HPLC retention time: 1 min
Helicobacter pylori [23]
  MIC: 0.00078 mg/L (≈ 0.00166 µM)
[24]
  Ratio: 0
[25]
  Ratio: 1

## Cc1nnc(SC2=C(C(=O)O)N3C(=O)C(NC(=O)Cc4ccccc4)[C@H]3SC2)s1 (some centres undefined)
[22]
  HPLC retention time: 10 min
[2]
  solubility: 0.053 mg/mL (≈ 118 µM)
[3]
  solubility: 1.05 mg/mL (≈ 2340 µM)
Canis familiaris
  Dose: <32 mg/kg
Helicobacter pylori [23]
  MIC: 0.00156 mg/L (≈ 0.00348 µM)
Helicobacter pylori [8]
  MIC50: 0.00313 mg/L (≈ 0.00698 µM)
Rattus norvegicus [9]
  Gastric concentration: 89 µg/g
Rattus norvegicus [10]
  Gastric concentration: 83 µg/g
Rattus norvegicus [11]
  Gastric concentration: 48 µg/g
Rattus norvegicus [12]
  Gastric concentration: 23 µg/g
Rattus norvegicus [13]
  Recovery rate: 33%
[24]
  Ratio: 2
[25]
  Ratio: 5
[14]
  Ratio: 1
[15]
  Ratio: 2
[16]
  Ratio: 0
[17]
  Ratio: 5
[18]
  Ratio: 2
[19]
  Ratio: 5
[21]
  HPLC retention time: 10 min

## O=C(O)Cc1csc(SC2=C(C(=O)O)N3C(=O)[C@@H](NC(=O)Cc4ccccc4)[C@H]3SC2)n1
[2]
  solubility: 0.125 mg/mL (≈ 254 µM)
[3]
  solubility: 1.82 mg/mL (≈ 3700 µM)
Helicobacter pylori [7]
  MIC50: 0.00039 mg/L (≈ 0.000793 µM)
Helicobacter pylori [8]
  MIC50: 0.00313 mg/L (≈ 0.00637 µM)
Rattus norvegicus [9]
  Gastric concentration: 377 µg/g
Rattus norvegicus [10]
  Gastric concentration: 150 µg/g
Rattus norvegicus [11]
  Gastric concentration: 111 µg/g
Rattus norvegicus [12]
  Gastric concentration: 63 µg/g
[14]
  Ratio: 2
[15]
  Ratio: 1
[16]
  Ratio: 0
[17]
  Ratio: 5
[18]
  Ratio: 0
[19]
  Ratio: 2
[21]
  HPLC retention time: 9.9 min

## O=C(Cc1ccccc1)NC1C(=O)N2C(C(=O)O)=C(Sc3cnns3)CS[C@H]12 (some centres undefined)
Rattus norvegicus [13]
  Recovery rate: 21%

## O=C(Cc1ccccc1)NC1C(=O)N2C(C(=O)O)=C(Sc3nccs3)CS[C@H]12 (some centres undefined)
Rattus norvegicus [13]
  Recovery rate: 63%

## Cc1ncc([N+](=O)[O-])n1CCO [METRONIDAZOLE]
Helicobacter pylori [4]
  MIC: 50 mg/L (≈ 292 µM)
Helicobacter pylori [5]
  MIC: 50 mg/L (≈ 292 µM)
Helicobacter pylori [6]
  MIC: 25 mg/L (≈ 146 µM)

## CC1(C)S[C@@H]2[C@H](NC(=O)[C@H](N)c3ccc(O)cc3)C(=O)N2[C@H]1C(=O)O [AMOXICILLIN]
Helicobacter pylori [4]
  MIC: 0.025 mg/L (≈ 0.0684 µM)
Helicobacter pylori [5]
  MIC: 0.05 mg/L (≈ 0.137 µM)
Helicobacter pylori [6]
  MIC: 0.2 mg/L (≈ 0.547 µM)
Helicobacter pylori [7]
  MIC50: 0.0125 mg/L (≈ 0.0342 µM)
Helicobacter pylori [8]
  MIC50: 0.05 mg/L (≈ 0.137 µM)
Bacteroides fragilis [1]
  Km: 27.3 µg/mL
  Vmax: 0.0175

## O=C(Cc1ccccc1)NC1C(=O)N2C(C(=O)O)=C(Sc3nncs3)CS[C@H]12 (some centres undefined)
Rattus norvegicus [13]
  Recovery rate: 9%
